Six molecules from ChEMBL document CHEMBL5465560, “Selectivity Literature for EUbOPEN Chemogenomic Library” (2024) can be followed below.

Test [1] deals with T1, Mitogen-activated protein kinase kinase kinase 2 (Homo sapiens) (UniProt Q9Y2U5).
T1 sequence (whole entry): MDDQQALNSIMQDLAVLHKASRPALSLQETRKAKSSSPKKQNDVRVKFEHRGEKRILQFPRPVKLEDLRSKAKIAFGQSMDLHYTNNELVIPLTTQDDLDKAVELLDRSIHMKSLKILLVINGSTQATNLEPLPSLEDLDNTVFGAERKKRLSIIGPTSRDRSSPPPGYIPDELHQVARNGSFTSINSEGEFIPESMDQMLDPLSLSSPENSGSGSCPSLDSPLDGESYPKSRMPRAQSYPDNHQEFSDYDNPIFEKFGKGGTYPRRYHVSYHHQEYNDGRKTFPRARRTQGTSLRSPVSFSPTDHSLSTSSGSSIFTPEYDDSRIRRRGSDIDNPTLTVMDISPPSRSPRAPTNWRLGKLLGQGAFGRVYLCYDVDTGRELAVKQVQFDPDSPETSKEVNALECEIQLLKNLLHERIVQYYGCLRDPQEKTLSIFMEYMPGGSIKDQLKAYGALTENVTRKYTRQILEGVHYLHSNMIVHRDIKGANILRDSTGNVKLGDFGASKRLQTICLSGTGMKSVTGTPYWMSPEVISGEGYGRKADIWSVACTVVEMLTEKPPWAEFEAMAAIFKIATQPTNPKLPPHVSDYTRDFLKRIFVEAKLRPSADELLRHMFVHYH
The test is described as follows: Selectivity interaction (KinomeScan (DiscoverX)) EUB0000595a MAP3K2. As to conditions: at 10 µM.

Test [2] deals with Serine/threonine-protein kinase PAK 6 (Homo sapiens) (UniProt Q9NQU5). Kind of test: Selectivity interaction (KinomeScan (DiscoverX)) EUB0000595a PAK6. As to conditions: at 10 µM.
Sequence of Serine/threonine-protein kinase PAK 6 (Homo sapiens) (Q9NQU5 whole entry, looked up): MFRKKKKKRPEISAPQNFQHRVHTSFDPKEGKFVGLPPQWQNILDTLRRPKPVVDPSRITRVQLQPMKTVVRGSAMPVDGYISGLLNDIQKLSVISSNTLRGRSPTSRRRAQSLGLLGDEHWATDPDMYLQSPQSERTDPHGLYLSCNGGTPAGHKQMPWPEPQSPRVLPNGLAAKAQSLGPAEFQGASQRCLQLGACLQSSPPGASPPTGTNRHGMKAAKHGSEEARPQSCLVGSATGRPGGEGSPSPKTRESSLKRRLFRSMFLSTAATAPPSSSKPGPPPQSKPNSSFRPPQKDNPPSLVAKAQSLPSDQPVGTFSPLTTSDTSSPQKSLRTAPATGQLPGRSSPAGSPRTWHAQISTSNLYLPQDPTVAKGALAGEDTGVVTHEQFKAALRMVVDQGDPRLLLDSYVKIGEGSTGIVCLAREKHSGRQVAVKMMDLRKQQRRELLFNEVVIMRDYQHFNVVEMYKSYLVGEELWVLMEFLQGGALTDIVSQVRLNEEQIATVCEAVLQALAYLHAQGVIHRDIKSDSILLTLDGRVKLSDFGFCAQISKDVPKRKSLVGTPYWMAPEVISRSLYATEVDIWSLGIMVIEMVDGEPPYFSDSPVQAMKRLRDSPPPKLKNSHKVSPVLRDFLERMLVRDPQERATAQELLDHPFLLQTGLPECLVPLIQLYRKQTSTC
Test [3] deals with T2, Dual specificity mitogen-activated protein kinase kinase 4 (Homo sapiens) (UniProt P45985).
T2 sequence (whole entry): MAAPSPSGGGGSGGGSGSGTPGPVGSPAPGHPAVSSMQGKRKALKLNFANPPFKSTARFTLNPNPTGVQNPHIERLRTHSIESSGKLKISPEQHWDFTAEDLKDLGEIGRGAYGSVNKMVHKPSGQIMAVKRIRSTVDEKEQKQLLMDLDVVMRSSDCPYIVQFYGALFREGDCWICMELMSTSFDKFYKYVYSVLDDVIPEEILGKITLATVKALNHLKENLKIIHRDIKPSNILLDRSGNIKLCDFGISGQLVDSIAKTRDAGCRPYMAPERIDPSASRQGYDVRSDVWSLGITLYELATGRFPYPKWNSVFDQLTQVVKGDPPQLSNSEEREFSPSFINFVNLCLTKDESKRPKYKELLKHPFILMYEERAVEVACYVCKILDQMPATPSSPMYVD
The test is described as follows: Selectivity interaction (ActivX KiNativ screen (ex vivo kinase selectivity in human PBMCs)) EUB0001619a MAP2K4. In kind it is cell-based. As to conditions: PBMC, at 1 µM.

Test [4] has as its target T3, Inhibitor of nuclear factor kappa-B kinase subunit epsilon (Homo sapiens) (UniProt Q14164).
T3 sequence (whole entry): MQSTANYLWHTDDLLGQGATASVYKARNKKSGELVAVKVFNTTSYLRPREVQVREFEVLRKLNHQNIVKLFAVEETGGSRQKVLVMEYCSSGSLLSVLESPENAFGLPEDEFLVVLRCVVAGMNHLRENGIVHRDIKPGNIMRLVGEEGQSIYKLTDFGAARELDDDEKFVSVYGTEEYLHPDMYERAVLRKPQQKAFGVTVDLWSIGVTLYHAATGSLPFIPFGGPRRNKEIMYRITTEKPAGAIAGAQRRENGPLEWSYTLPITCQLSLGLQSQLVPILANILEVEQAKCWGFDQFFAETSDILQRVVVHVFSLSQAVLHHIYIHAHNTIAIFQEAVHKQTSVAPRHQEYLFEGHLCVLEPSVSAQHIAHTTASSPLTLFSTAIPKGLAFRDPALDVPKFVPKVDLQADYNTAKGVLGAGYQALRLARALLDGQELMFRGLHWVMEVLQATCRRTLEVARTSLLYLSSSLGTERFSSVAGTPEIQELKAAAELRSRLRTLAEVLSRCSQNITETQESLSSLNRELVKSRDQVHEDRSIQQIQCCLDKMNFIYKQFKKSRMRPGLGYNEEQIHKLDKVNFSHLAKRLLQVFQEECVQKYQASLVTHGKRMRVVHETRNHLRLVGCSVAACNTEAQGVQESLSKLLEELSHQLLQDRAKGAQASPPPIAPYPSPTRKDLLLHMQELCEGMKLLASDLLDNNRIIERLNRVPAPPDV
The test is described as follows: Selectivity interaction (ActivX KiNativ screen (ex vivo kinase selectivity in human PBMCs)) EUB0001619a IKBKE. In kind it is cell-based. As to conditions: PBMC, at 1 µM.

The target of test [5] is Cyclin-dependent kinase 18 (Homo sapiens) (UniProt Q07002). The test is described as follows: Selectivity interaction (KinomeScan (DiscoverX)) EUB0000666a CDK18. As to conditions: at 10 µM.
Sequence of Cyclin-dependent kinase 18 (Homo sapiens) (Q07002 whole entry): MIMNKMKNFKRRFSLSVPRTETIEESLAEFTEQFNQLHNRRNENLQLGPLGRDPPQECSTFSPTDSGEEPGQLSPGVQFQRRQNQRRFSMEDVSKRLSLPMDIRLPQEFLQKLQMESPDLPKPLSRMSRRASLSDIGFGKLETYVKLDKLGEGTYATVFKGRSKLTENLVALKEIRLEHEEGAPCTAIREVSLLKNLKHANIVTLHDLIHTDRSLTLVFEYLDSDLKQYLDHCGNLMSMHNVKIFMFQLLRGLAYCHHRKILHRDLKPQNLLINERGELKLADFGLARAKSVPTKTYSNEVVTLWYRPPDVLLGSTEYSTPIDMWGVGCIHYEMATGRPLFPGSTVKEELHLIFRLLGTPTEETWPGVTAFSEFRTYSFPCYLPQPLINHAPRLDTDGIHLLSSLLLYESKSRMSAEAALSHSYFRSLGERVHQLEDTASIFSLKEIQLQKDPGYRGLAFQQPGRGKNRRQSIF
Test [6] concerns the target Mitogen-activated protein kinase 10 (Homo sapiens, UniProt P53779). The test is described as follows: Selectivity interaction (Kinase panel (Invitrogen)) EUB0000639a MAPK10. As to conditions: at 200 nM.
In test [7] the target is Ribosomal protein S6 kinase alpha-6 (Homo sapiens, UniProt Q9UK32). Kind of test: Selectivity interaction (KinomeScan (DiscoverX)) EUB0000045b RPS6KA6. As to conditions: at 1 µM.
Sequence of Ribosomal protein S6 kinase alpha-6 (Q9UK32 whole entry): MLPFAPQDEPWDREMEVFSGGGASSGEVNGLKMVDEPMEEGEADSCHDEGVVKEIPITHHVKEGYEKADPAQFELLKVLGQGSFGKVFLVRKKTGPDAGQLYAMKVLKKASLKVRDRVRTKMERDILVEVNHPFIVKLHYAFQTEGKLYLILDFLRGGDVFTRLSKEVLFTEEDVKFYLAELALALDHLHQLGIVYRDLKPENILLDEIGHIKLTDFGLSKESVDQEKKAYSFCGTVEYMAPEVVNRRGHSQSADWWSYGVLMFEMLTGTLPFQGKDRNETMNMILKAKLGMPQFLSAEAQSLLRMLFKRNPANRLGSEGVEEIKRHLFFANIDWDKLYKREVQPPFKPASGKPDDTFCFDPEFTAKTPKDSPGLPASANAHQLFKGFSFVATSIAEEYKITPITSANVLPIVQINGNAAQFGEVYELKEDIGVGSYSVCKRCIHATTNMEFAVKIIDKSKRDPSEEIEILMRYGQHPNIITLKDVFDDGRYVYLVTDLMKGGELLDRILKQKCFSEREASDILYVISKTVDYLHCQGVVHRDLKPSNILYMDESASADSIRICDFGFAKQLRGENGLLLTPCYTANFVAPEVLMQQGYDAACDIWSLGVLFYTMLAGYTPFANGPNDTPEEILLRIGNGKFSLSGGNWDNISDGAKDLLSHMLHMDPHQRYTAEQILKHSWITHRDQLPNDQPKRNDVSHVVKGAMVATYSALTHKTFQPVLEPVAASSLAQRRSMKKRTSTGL
Test [8] has as its target T4, NUAK family SNF1-like kinase 1 (Homo sapiens) (UniProt O60285).
T4 sequence (whole entry): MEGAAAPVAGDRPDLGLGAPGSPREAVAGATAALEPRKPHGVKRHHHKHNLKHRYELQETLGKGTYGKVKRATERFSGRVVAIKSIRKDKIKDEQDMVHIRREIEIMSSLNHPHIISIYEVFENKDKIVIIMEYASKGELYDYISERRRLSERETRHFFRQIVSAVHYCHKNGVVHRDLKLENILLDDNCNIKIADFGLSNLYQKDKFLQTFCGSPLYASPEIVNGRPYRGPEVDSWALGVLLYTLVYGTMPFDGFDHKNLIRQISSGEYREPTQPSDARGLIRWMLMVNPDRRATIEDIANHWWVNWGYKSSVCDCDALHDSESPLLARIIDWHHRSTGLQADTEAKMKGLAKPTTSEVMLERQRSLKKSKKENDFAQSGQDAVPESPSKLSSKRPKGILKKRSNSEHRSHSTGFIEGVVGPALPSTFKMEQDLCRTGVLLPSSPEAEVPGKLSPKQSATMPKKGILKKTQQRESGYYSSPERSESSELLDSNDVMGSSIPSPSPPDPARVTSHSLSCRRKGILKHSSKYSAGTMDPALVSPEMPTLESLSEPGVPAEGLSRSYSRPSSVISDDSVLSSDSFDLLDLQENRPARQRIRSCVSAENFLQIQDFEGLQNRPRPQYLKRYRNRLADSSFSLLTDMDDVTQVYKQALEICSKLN
Kind of test: Selectivity interaction (Upstate Kinase Profiler service (Millipore)) EUB0000056c NUAK1. As to conditions: at 1 µM.

Sequence of Mitogen-activated protein kinase 10 (P53779 whole entry): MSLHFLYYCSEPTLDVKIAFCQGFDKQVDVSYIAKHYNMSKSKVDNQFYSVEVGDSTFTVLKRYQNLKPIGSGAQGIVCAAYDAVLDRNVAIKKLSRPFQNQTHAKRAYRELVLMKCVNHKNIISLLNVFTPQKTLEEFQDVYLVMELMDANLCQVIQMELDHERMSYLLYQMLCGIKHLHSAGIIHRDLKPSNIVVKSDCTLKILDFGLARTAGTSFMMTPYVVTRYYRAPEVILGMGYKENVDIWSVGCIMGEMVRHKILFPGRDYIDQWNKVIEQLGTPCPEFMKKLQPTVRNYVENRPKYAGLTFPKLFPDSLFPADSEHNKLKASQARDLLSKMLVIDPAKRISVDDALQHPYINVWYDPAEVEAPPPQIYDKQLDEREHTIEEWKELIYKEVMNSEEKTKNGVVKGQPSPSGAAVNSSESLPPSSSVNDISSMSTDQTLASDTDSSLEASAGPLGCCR

For `COCC(=O)NC/C=C/c1ccc2ncnc(Nc3ccc(Oc4ccc(C)nc4)c(C)c3)c2c1` [CP-724714], the % of control in test [1] came out at 100%; in test [2] it was 87%.
On to `N#Cc1cccc(-c2c[nH]c3ncnc(N4CCOCC4)c23)c1`, for which the figures for the % of inhibition in test [3] and in test [4] were -17% and 7%, respectively.
The molecule `O=C(NOC[C@H](O)CO)c1ccc(F)c(F)c1Nc1ccc(I)cc1F` showed a % of control in test [5] of 100%.
Turning to `CC[C@@H]1[C@H](F)C(=O)N[C@@H]1COc1nccc2cc(C(N)=O)c(OC)cc12` [ZIMLOVISERTIB], the % of inhibition in test [6] is 6.65%.
`C=CC(=O)Nc1cc(-n2c(=O)ccc3cnc4ccc(-c5ccc(NS(C)(=O)=O)cc5)cc4c32)ccc1C` came in with a % of control in test [7] of 56%.
With `Cc1ccc(-c2ccc3c(ccc4sc5c(c43)NC[C@@H](C)NC5=O)n2)cn1`, the % of inhibition in test [8] worked out at 35%.
